The target of test [1] is Phosphatidylinositol 4,5-bisphosphate 3-kinase catalytic subunit gamma isoform (Homo sapiens) (UniProt P48736). The test is described as follows: Selectivity interaction (KinomeScan (DiscoverX)) EUB0001619a PIK3CG. The following applies: at 1 µM.
In test [2] the target is T1, Membrane-associated tyrosine- and threonine-specific cdc2-inhibitory kinase (Homo sapiens) (UniProt Q99640).
T1 sequence (whole entry): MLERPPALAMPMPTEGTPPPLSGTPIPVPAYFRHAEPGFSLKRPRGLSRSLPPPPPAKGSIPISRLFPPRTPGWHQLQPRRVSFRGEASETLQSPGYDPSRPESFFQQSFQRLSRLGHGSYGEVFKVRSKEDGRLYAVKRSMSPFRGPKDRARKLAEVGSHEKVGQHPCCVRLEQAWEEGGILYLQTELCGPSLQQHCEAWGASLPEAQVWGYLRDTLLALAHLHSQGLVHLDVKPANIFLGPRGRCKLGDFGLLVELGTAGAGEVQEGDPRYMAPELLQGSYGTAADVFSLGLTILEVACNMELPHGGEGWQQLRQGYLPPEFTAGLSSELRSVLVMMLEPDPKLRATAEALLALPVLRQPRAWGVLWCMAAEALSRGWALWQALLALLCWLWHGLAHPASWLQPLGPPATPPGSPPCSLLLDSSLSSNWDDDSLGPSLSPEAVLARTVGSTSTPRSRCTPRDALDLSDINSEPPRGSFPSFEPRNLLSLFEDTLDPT
The following applies: at 10 µM.

The target of test [3] is Serine/threonine-protein kinase MARK1 (Homo sapiens) (UniProt Q9P0L2). The experiment in a line: Selectivity interaction (KinomeScan (DiscoverX)) EUB0000695a MARK1. The following applies: at 100 nM.
The target of test [4] is T2, Dual specificity mitogen-activated protein kinase kinase 6 (Homo sapiens) (UniProt P52564).
T2 sequence (whole entry): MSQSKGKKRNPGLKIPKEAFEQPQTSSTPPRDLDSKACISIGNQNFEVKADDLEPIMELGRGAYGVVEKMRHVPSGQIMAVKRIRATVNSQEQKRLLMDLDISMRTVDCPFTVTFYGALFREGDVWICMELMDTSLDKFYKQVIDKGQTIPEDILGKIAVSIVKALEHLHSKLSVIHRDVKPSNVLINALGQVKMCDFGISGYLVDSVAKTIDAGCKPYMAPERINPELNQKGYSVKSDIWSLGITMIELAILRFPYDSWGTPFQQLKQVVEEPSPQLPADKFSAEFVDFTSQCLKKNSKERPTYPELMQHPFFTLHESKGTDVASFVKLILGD
The test is described as follows: Selectivity interaction (KinomeScan (DiscoverX)) EUB0000666a MAP2K6. The following applies: at 10 µM.

Test [5] addresses Tyrosine-protein kinase FRK (Homo sapiens) (UniProt P42685). The experiment in a line: Selectivity interaction (KinomeScan (DiscoverX)) EUB0000607a FRK. To be noted: at 10 µM.
Test [6] deals with Hepatocyte growth factor-like protein (Homo sapiens) (UniProt P26927). The experiment in a line: Selectivity interaction (KinomeScan (DiscoverX)) EUB0000607a MST1. To be noted: at 10 µM.
Test [7] concerns the target Tyrosine-protein kinase CSK (Homo sapiens) (UniProt P41240). The test is described as follows: Selectivity interaction (Kinase screening (Upstate/Millipore)) EUB0000604a CSK.
Test [8] addresses DNA-dependent protein kinase catalytic subunit (Homo sapiens) (UniProt P78527). The test is described as follows: Selectivity interaction (ActivX KiNativ screen (kinase selectivity in THP-1 cell lysates)) EUB0000639a PRKDC. To be noted: lysate, at 0.2 µM. Type of test: subcellular.
The target in test [9] is Serine/threonine-protein kinase Nek7 (Homo sapiens) (UniProt Q8TDX7). The experiment in a line: Selectivity interaction (ActivX KiNativ screen (kinase selectivity in THP-1 cell lysates)) EUB0000639a NEK7. The format is subcellular. The following applies: lysate.
The target in test [10] is Tyrosine-protein kinase FRK (Homo sapiens) (UniProt P42685). The test is described as follows: Selectivity interaction (KinomeScan (DiscoverX)) EUB0000045b FRK.
Test [11] has as its target Ribosomal protein S6 kinase alpha-4 (Homo sapiens) (UniProt O75676). The experiment in a line: Selectivity interaction (Ambit KINOMEscan and KiNATiv profiling in Jurkat cells) EUB0000090b RPS6KA4. The format is cell-based. To be noted: at 1 µM.
Test [12] concerns the target Dual specificity protein kinase CLK3 (Homo sapiens, UniProt P49761). The test is described as follows: Selectivity interaction (KinomeScan (DiscoverX)) EUB0001049a CLK3. To be noted: at 1 µM.
For test [13], the target named is T3, Serine/threonine-protein kinase RIO3 (Homo sapiens) (UniProt O14730).
T3 sequence (whole entry): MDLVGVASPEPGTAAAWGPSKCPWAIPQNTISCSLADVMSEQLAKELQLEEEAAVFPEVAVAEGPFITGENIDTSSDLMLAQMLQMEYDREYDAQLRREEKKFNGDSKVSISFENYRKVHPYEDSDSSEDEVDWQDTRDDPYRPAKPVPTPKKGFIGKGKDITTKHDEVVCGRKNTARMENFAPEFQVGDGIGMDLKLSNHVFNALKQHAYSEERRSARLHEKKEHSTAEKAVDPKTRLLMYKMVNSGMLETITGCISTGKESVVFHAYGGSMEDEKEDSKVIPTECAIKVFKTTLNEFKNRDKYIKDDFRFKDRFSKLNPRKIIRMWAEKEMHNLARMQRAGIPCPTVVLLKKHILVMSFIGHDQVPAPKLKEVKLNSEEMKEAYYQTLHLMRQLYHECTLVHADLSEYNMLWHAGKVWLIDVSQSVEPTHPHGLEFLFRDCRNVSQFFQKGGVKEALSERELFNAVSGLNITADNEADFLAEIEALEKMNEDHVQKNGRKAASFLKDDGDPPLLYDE
The test is described as follows: Selectivity interaction (KinomeScan (DiscoverX)) EUB0001868a RIOK3. To be noted: at 1 µM.

Test [14] deals with Interleukin-1 receptor-associated kinase 1 (Homo sapiens) (UniProt P51617). The experiment in a line: Selectivity interaction (KinomeScan (DiscoverX)) EUB0000618a IRAK1. The following applies: at 10 µM.
Test [15] addresses Serine/threonine-protein kinase VRK2 (Homo sapiens) (UniProt Q86Y07). The test is described as follows: Selectivity interaction (KinomeScan (DiscoverX)) EUB0000618a VRK2. To be noted: at 10 µM.
For test [16], the target named is Dual specificity protein kinase CLK1 (Homo sapiens, UniProt P49759). The test is described as follows: Selectivity interaction (KinomeScan (DiscoverX)) EUB0000092b CLK1. To be noted: at 10 µM.
In test [17] the target is T2, Dual specificity mitogen-activated protein kinase kinase 6 (Homo sapiens). The test is described as follows: Selectivity interaction (Millipore kinase profiler) EUB0000124b MAP2K6. To be noted: at 10 µM.

SMILES strings stand for the structures.

Serine/threonine-protein kinase Nek7 (Homo sapiens), sequence (Q8TDX7 whole entry, looked up): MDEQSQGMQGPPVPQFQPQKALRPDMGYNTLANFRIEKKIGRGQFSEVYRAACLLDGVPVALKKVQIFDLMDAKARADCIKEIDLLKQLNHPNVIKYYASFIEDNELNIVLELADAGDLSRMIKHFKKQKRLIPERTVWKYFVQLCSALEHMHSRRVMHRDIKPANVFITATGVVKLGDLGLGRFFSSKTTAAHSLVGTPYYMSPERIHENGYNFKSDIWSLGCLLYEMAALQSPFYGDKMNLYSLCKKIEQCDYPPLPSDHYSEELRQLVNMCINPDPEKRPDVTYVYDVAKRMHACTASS
Tyrosine-protein kinase FRK (Homo sapiens), sequence (P42685 whole entry): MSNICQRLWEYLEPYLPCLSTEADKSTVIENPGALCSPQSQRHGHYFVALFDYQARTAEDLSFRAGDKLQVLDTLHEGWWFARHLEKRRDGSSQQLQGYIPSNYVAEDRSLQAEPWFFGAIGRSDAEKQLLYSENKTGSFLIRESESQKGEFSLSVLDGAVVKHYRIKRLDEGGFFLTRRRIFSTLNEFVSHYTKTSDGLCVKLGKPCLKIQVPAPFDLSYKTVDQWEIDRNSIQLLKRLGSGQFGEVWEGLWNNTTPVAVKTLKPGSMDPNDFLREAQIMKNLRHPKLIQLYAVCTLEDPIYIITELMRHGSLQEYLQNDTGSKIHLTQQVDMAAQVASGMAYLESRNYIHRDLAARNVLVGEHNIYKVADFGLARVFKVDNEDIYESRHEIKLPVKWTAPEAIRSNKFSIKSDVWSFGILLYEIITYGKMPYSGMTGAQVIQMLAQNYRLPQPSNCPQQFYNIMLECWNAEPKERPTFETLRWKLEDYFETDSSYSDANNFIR
Phosphatidylinositol 4,5-bisphosphate 3-kinase catalytic subunit gamma isoform (Homo sapiens), sequence (P48736 whole entry, looked up, canonical isoform): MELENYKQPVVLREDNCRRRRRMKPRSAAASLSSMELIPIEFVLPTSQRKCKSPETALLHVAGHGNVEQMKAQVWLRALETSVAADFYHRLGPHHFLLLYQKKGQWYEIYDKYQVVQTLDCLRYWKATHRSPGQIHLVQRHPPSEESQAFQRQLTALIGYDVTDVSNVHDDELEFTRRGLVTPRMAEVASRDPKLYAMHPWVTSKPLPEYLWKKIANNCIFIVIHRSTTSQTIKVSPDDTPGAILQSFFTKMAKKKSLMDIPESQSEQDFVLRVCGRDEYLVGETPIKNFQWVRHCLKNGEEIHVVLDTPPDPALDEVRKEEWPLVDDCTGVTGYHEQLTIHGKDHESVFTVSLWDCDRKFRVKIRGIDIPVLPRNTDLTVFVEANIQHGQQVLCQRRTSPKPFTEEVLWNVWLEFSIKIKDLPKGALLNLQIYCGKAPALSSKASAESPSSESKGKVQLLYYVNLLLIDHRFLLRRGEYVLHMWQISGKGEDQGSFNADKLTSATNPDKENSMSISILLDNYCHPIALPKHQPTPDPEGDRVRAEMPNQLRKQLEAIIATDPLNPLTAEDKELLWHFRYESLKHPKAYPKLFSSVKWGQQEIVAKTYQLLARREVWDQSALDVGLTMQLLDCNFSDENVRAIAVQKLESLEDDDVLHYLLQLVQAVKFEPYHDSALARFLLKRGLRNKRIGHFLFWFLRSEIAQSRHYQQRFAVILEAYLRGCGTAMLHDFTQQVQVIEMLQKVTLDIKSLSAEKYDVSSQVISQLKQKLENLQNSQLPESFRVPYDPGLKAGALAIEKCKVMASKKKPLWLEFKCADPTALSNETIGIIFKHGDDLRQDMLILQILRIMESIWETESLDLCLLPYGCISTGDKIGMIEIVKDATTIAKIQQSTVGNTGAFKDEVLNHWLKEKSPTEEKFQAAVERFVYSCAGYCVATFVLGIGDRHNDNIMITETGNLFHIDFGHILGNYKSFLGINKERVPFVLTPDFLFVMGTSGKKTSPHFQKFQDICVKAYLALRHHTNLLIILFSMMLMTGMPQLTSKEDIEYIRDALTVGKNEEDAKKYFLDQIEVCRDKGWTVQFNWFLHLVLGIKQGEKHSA
Dual specificity protein kinase CLK1, sequence (P49759 whole entry, looked up): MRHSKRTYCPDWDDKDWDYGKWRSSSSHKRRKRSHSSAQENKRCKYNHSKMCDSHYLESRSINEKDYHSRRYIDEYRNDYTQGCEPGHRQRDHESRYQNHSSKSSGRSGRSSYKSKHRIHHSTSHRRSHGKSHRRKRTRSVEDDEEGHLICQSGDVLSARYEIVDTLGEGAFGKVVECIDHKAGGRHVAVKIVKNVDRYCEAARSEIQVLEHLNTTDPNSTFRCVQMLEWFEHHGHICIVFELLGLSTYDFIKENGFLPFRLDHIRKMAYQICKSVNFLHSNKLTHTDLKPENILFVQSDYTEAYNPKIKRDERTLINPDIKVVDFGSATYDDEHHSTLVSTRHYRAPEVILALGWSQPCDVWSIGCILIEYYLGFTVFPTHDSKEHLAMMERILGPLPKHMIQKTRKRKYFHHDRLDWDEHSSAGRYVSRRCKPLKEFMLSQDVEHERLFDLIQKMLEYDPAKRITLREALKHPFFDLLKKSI
Tyrosine-protein kinase CSK (Homo sapiens), sequence (P41240 2-450 limits assumed): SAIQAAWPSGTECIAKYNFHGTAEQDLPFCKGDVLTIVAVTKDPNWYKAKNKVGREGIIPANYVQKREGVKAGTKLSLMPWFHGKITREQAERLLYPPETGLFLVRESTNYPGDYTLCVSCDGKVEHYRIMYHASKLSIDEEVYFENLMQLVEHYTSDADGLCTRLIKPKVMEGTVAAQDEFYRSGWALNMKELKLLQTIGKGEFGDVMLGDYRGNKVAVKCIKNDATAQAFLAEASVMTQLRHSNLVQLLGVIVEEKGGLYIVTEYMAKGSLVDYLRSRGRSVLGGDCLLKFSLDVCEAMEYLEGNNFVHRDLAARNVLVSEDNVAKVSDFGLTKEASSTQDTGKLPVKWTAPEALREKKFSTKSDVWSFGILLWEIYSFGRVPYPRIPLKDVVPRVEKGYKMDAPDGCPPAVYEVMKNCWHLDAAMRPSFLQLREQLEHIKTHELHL
Dual specificity protein kinase CLK3, sequence (P49761 whole entry, looked up): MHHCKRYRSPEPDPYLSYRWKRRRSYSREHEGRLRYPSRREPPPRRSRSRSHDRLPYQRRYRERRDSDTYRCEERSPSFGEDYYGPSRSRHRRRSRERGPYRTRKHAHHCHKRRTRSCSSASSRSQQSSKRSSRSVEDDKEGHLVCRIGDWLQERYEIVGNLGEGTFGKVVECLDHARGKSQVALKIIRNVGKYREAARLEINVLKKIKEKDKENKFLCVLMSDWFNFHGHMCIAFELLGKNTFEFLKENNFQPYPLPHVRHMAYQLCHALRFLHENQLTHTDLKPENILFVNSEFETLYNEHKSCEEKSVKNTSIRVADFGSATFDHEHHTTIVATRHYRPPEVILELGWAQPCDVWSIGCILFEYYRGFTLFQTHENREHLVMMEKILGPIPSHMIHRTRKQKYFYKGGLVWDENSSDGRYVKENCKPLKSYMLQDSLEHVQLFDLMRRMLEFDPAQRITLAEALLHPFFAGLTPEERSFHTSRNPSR
Interleukin-1 receptor-associated kinase 1 (Homo sapiens), sequence (P51617 whole entry, looked up): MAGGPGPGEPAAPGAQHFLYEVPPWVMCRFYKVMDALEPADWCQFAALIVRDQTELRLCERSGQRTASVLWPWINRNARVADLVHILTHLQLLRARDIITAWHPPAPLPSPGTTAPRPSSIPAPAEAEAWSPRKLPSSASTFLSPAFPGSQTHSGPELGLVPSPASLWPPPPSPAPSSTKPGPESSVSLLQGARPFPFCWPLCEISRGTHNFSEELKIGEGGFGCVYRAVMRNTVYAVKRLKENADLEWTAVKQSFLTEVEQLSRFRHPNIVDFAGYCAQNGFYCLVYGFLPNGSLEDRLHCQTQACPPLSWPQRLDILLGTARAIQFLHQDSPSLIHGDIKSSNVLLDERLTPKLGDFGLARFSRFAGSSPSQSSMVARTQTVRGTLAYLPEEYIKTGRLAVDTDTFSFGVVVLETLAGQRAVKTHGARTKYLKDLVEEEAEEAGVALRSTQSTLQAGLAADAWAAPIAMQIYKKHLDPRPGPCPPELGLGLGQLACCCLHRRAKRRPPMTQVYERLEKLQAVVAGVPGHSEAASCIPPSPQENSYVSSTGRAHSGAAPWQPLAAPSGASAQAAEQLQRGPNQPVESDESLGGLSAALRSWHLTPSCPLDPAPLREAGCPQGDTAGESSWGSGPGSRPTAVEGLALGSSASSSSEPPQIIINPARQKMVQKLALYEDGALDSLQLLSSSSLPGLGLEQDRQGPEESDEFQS
Serine/threonine-protein kinase VRK2 (Homo sapiens), sequence (Q86Y07 whole entry): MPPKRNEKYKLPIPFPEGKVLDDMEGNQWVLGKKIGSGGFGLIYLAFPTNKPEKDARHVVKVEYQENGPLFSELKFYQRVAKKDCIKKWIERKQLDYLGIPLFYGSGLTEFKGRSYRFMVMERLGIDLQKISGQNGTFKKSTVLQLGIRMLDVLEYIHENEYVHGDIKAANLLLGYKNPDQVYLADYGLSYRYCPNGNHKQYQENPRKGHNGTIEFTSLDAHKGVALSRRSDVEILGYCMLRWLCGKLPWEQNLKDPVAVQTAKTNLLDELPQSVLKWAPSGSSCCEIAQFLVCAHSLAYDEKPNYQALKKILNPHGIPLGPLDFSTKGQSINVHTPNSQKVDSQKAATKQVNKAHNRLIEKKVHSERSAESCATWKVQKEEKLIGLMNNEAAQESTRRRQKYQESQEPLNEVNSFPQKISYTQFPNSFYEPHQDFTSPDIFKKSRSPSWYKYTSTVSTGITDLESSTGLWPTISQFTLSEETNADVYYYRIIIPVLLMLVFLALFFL

The compound `N#Cc1cccc(-c2c[nH]c3ncnc(N4CCOCC4)c23)c1` came in with a % of control in [1] of 79%.

`CCN(CC)CCCCNc1ncc2cc(-c3cc(OC)cc(OC)c3)c(NC(=O)NC(C)(C)C)nc2n1`: the % of control in test [2] turned out to be 100%.

Regarding `Cc1cc(F)c(C(=O)Nc2cccc(-c3nncn3C(C)C)n2)cc1-n1cnc(C2CC2)c1`, the % of control in [3] was found to be 100%.

Compound `O=C(NOC[C@H](O)CO)c1ccc(F)c(F)c1Nc1ccc(I)cc1F` returned a % of control in test [4] of 100%.

As to `CNC(=O)Nc1ccc(-c2nc(N3CC4CCC(C3)O4)c3cnn(C4CCC5(CC4)OCCO5)c3n2)cc1`, the % of control in test [5] came to 68%; in test [6], 100%.

Take `Cc1cnc(Nc2ccc(F)cc2Cl)nc1-c1c[nH]c(C(=O)N[C@H](CO)c2cccc(Cl)c2)c1`: in [7], the % of inhibition was 0%.

Take `CC[C@@H]1[C@H](F)C(=O)N[C@@H]1COc1nccc2cc(C(N)=O)c(OC)cc12` [ZIMLOVISERTIB]: the % of inhibition in [8] is -5.7%; in test [9] (at 0.01 µM), -4%; in test [9] (at 0.04 µM) it was -1.1%; in test [9] (at 0.2 µM) it was -1.6%; in test [9] (at 1 µM) it was 10.8%; in test [9] (at 5 µM), -20%.

With `C=CC(=O)Nc1cc(-n2c(=O)ccc3cnc4ccc(-c5ccc(NS(C)(=O)=O)cc5)cc4c32)ccc1C`, the % of control in test [10] (at 1 µM) came to 100%; in test [10] (at 10 µM) it was 98%.

Consider `CN(C)C/C=C/C(=O)Nc1ccc(C(=O)N2CCCC(Nc3ncc(Cl)c(-c4c[nH]c5ccccc45)n3)C2)cc1` (configuration not stated), for which, in [11], the % of control came to 93%.

In test [12], `COc1cc(Nc2nc(C)cc(-c3cnn4nc(OC)ccc34)n2)cc(C(F)(F)F)c1` had a % of control of 80%.

Regarding `Cc1cc(-c2ccnc(Nc3cnn(C)c3)n2)ccc1CNC(=O)N1CC(OC(C)C)C1`, the % of control in test [13] is 19%.

As to `O[C@H]1CC[C@H](Nc2ncc3nc(Nc4c(F)cc(F)cc4F)n([C@H]4CCOC4)c3n2)CC1`, the % of control came to 38% in test [14] and 100% in [15].

As to `CCC(=O)N1CCN(c2ccc(-n3c(=O)ccc4cnc5ccc(-c6cnc7ccccc7c6)cc5c43)cc2C(F)(F)F)CC1`, the % of control in test [16] is 49%.

On to `CC(=O)Nc1cccc(-n2c(=O)n(C3CC3)c(=O)c3c(Nc4ccc(I)cc4F)n(C)c(=O)c(C)c32)c1`, for which the % of control in [17] amounted to 70%.

For the origin of these results see ChEMBL document CHEMBL5465560, “Selectivity Literature for EUbOPEN Chemogenomic Library” (2024).
